From the supplement of paper PMC10307832

Key:
Test in all cases: relative viability (nuclei count vs DMSO), 5 days (fraction); higher = more cells survive
Lapatinib + Pictilisib = compound: CS(=O)(=O)CCNCc1ccc(-c2ccc3ncnc(Nc4ccc(OCc5cccc(F)c5)c(Cl)c4)c3c2)o1 [Lapatinib] + CS(=O)(=O)N1CCN(Cc2cc3nc(-c4cccc5[nH]ncc45)nc(N4CCOCC4)c3s2)CC1 [Pictilisib] (partner 1 µM)
How it was run: (§1)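 Lung cancer cell lines were seeded in 1536-well plates and dosed by pin tool the next day, with either a single drug or a fixed anchor-drug dose combined with five library-drug doses (not always all listed) spaced in √10 steps. Five days later, one step fixed the cells and stained their nuclei (final 0.05% Triton X-100, 1% formaldehyde, 1 ug/ml Hoechst), and nuclei were counted on 4× images. Relative viability is the nuclei count in treated wells divided by the count in vehicle wells, and each value is the median of duplicate plates.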

Lapatinib + Crizotinib = compound: CS(=O)(=O)CCNCc1ccc(-c2ccc3ncnc(Nc4ccc(OCc5cccc(F)c5)c(Cl)c4)c3c2)o1 [Lapatinib] + C[C@@H](Oc1cc(-c2cnn(C3CCNCC3)c2)cnc1N)c1c(Cl)ccc(F)c1Cl [Crizotinib] (partner 1 µM)
How it was run: as §1

Wnt-C59 + OSI-027 = compound: CC1=NC=CC(=C1)C2=CC=C(C=C2)CC(=O)NC3=CC=C(C=C3)C4=CN=CC=C4 [Wnt-C59] + COc1cccc2cc(-c3nc([C@H]4CC[C@H](C(=O)O)CC4)n4ncnc(N)c34)[nH]c12 [OSI-027] (partner 0.5 µM)
How it was run: as §1

Lapatinib + Vorinostat = compound: CS(=O)(=O)CCNCc1ccc(-c2ccc3ncnc(Nc4ccc(OCc5cccc(F)c5)c(Cl)c4)c3c2)o1 [Lapatinib] + O=C(CCCCCCC(=O)Nc1ccccc1)NO [Vorinostat] (partner 1 µM)
How it was run: as §1

Cell Line | relative viability (Lapatinib + Pictilisib; first compound 0.06325 µM) | relative viability (Lapatinib + Pictilisib; first compound 0.2 µM) | relative viability (Lapatinib + Pictilisib; first compound 0.6325 µM) | relative viability (Lapatinib + Pictilisib; first compound 2 µM) | relative viability (Lapatinib + Crizotinib; first compound 0.06325 µM) | relative viability (Lapatinib + Crizotinib; first compound 0.2 µM) | relative viability (Lapatinib + Crizotinib; first compound 0.6325 µM) | relative viability (Lapatinib + Crizotinib; first compound 2 µM) | relative viability (Wnt-C59 + OSI-027; first compound 0.001 µM) | relative viability (Wnt-C59 + OSI-027; first compound 0.01 µM) | relative viability (Wnt-C59 + OSI-027; first compound 0.03162 µM) | relative viability (Wnt-C59 + OSI-027; first compound 0.1 µM) | relative viability (Lapatinib + Vorinostat; first compound 0.06325 µM) | relative viability (Lapatinib + Vorinostat; first compound 0.2 µM) | relative viability (Lapatinib + Vorinostat; first compound 0.6325 µM) | relative viability (Lapatinib + Vorinostat; first compound 2 µM) | relative viability (Lapatinib + Vorinostat; first compound 0.02 µM) | relative viability (Lapatinib + Pictilisib; first compound 0.02 µM) | relative viability (Lapatinib + Crizotinib; first compound 0.02 µM)
NCI-H1915 | 0.909 | 0.982 | 0.981 | 0.949 | 0.868 | 0.887 | 0.846 | 0.86 | 0.667 | 0.578 | 0.529 | 0.692 | 0.494 | 0.554 | 0.489 | 0.473 |  |  | 
NCI-H1944 |  | 0.348 | 0.343 | 0.318 |  | 0.811 | 0.808 | 0.56 | 0.407 | 0.358 | 0.415 | 0.462 | 0.511 | 0.461 | 0.459 | 0.437 | 0.514 |  | 
NCI-H1975 | 0.24 | 0.309 | 0.329 | 0.192 | 0.837 | 1.05 | 0.85 | 0.736 | 0.685 | 0.555 | 0.855 | 0.713 | 0.676 | 0.732 | 0.716 | 0.662 | 0.71 | 0.281 | 0.949
NCI-H1993 |  | 0.808 | 0.812 | 0.977 |  | 0.796 | 0.737 | 0.742 | 0.582 |  | 0.57 | 0.544 |  | 0.721 | 0.672 | 0.509 | 0.45 | 0.715 | 0.854
NCI-H2009 | 0.747 | 0.989 | 0.853 | 0.974 | 1.05 | 1.05 | 1.03 | 0.959 | 0.699 | 0.701 | 0.695 | 0.64 | 0.74 | 0.894 | 0.693 | 0.679 | 0.733 | 0.357 | 1.09
NCI-H2023 | 0.15 | 0.262 | 0.276 | 0.199 | 0.419 | 0.491 | 0.633 | 0.281 | 0.475 | 0.316 | 0.461 | 0.376 | 0.402 | 0.603 | 0.612 | 0.552 |  | 0.164 | 0.539
NCI-H2085 | 0.454 | 0.553 | 0.54 | 0.45 | 0.996 | 0.759 | 0.807 | 0.616 | 0.837 | 0.569 | 0.747 | 0.77 | 0.716 | 0.795 | 0.741 | 0.587 | 0.666 | 0.389 | 0.824
NCI-H2087 | 0.737 | 1.03 | 0.963 | 0.802 | 0.88 | 1.1 | 0.692 | 0.766 | 0.53 | 0.476 | 0.572 | 0.592 | 0.843 | 0.728 | 0.604 | 0.671 | 0.547 | 0.472 | 0.876
NCI-H2126 | 0.402 | 0.474 | 0.49 | 0.431 | 0.879 | 1.02 | 1.04 | 0.865 | 0.718 | 0.655 | 0.7 | 0.682 | 0.405 | 0.717 | 0.801 | 0.614 | 0.251 |  | 
NCI-H2170 | 0.207 | 0.275 | 0.244 | 0.237 | 0.904 | 0.694 | 0.475 | 0.223 | 0.748 | 0.468 | 0.872 | 0.491 | 0.747 | 0.578 | 0.582 | 0.372 | 0.726 | 0.281 | 1.13
NCI-H2228 | 0.321 | 0.567 | 0.403 | 0.259 | 0.342 | 0.462 | 0.379 | 0.297 | 0.665 | 0.484 | 0.596 | 0.548 | 0.7 | 0.907 | 0.517 | 0.48 | 0.774 | 0.51 | 0.603
NCI-H2347 | 0.673 | 0.663 | 0.646 | 0.873 | 0.654 | 0.722 | 0.649 | 0.671 | 0.365 | 0.474 | 0.51 | 0.457 | 0.629 | 0.554 | 0.689 | 0.547 | 0.501 | 0.598 | 0.7
NCI-H2405 | 0.412 | 0.428 | 0.398 | 0.397 | 0.753 | 0.884 | 0.824 | 0.767 | 0.633 | 0.554 | 0.579 | 0.476 | 0.833 |  | 0.997 | 0.91 |  |  | 0.628
NCI-H3122 | 0.481 | 0.636 | 0.603 | 0.751 | 0.224 | 0.27 | 0.268 | 0.274 | 1.02 | 0.978 | 1.32 | 0.891 | 1.06 | 0.963 | 0.977 | 0.974 | 0.932 | 0.564 | 0.277
PC-3 [JPC-3] | 0.687 | 0.621 | 0.769 | 0.512 | 0.965 | 1.09 | 0.998 | 0.656 | 0.83 | 0.738 | 0.83 | 0.773 | 0.804 |  | 0.637 | 0.495 |  |  | 
PC-14 | 0.641 | 0.768 | 0.804 | 0.121 | 0.9 | 0.946 | 0.898 | 0.826 | 1.01 | 0.897 | 1.18 | 0.731 | 0.55 | 0.76 | 0.732 | 0.0919 | 0.652 | 0.543 | 0.815
RERF-LC-KJ | 0.907 | 0.595 | 0.438 | 0.325 | 0.802 | 0.86 | 0.876 | 0.726 | 0.599 | 0.504 | 0.658 | 0.56 | 0.632 | 0.673 | 0.647 | 0.601 | 0.543 | 0.472 | 0.803
SK-LU-1 | 0.504 | 0.634 | 0.754 | 0.57 | 0.814 | 0.992 | 1.07 | 0.859 | 0.406 | 0.283 | 0.39 | 0.364 | 0.747 | 0.829 | 0.776 | 0.802 | 0.681 |  | 
